Measurements: patent publication US9763445B2, “Safened herbicidal compositions comprising a pyridine carboxylic acid herbicide” (Dow AgroSciences, LLC, priority 2014, dated 2017)

Experiments:
wild buckwheat (POLCO) = assay: Postemergence greenhouse trial, % visual injury on wild buckwheat; format: in vivo, Polygonum convolvulus; settings: alone, 35 g/ha
Method: (§1) Seeds of the desired test plant species were planted in Sun Gro MetroMix® 306 planting mixture, which typically has a pH of 6.0 to 6.8 and an organic matter content of about 30 percent, in plastic pots with a surface area of 103.2 square centimeters (cm^2). When required to ensure good germination and healthy plants, a fungicide treatment and/or other chemical or physical treatment was applied. The plants were grown for 7-36 days (d) in a greenhouse with an approximate 14-hour (h) photoperiod which was maintained at about 23° C. during the day and 22° C. during the night. Nutrients and water were added on a regular basis and supplemental lighting was provided with overhead metal halide 1000-Watt lamps as necessary. The plants were employed for testing when they reached the second or third true leaf stage.
(§2) Weighed amounts of technical material were dissolved in a volume of 97:3 volume per volume (v/v) acetone/dimethyl sulfoxide (DMSO) to stock solutions. […] The concentrated stock solutions were diluted with an aqueous mixture of 1.5% v/v of Agri-dex crop oil concentrate to provide the appropriate application rates. Compound requirements are based upon a 12 milliliter (mL) application volume at a rate of 187 liters per hectare (L/ha). Stocks solutions of the safeners were prepared following the same procedure. Spray solutions of the safeners and experimental compound mixtures were prepared by adding the stock solutions to the appropriate amount of dilution solution to form a 12 mL spray solution in two-way combinations. Formulated compounds were applied to the plant material with an overhead Mandel track sprayer equipped with 8002E nozzles calibrated to deliver 187 L/ha over an application area of 0.503 square meters (m^2) at a spray height of 18 inches (43 centimeters (cm)) above average plant canopy. Control plants were sprayed in the same manner with the solvent blank. All herbicide application (component a) rates are in g ae/ha and all safener (component b) rates are in g ai/ha.
(§3) The treated plants and control plants were placed in a greenhouse as described above and watered by sub-irrigation to prevent wash-off of the test compounds. After 20-22 d, the condition of the test plants as compared with that of the control plants was determined visually and scored on a scale of 0 to 100 percent where 0 corresponds to no injury and 100 corresponds to complete kill. The condition of the test plants was compared with that of the control plants as determined visually and scored on a scale of 0 to 100 percent, where 0 corresponds to no injury and 100 corresponds to complete kill. Colby's equation was used to determine the herbicidal effects expected from the mixtures.
(§4) The safener cloquintocet-mexyl was combined with compound 1, compound 2, compound 4, compound 5, and compound 6, and applied to corn/maize (ZEAMX) and spring wheat (TRZAS) and the phytotoxicity of the herbicidal compositions was measured. In addition, the efficacy of the herbicidal composition on velvetleaf (ABUTH, Abutilon theophrasti), pigweed (AMARE, Amaranthus retroflexus), winter rape (BRSNW, Brassica napus), lambsquarters (CHEAL, Chenopodium album), thistle (CIRAR, Cirsium arvense), nutsedge (CYPES, Cyperus esculentus), poinsettia (EPHHL, Euphorbia heterophylla), wild buckwheat (POLCO, Polygonum convolvulus), giant foxtail (SETFA, Setaria faberi), and chickweed (STEME, Stellaria media) was evaluated.
(§5) The safener cloquintocet-mexyl was combined with compound 1, compound 2, compound 3, compound 7, compound 8, compound 9, compound 10, compound 11, compound 12, compound 13, compound 14, compound 15, compound 16, compound 17, compound 18, compound 19, and compound 20, and applied to spring wheat (TRZAS), winter wheat (TRZAW), and spring barley (HORVS) and the phytotoxicity of the herbicidal compositions was measured. […]

lambsquarters (CHEAL) = assay: Postemergence greenhouse trial, % visual injury on lambsquarters; format: in vivo, Chenopodium album; settings: Chenopodium album, post-emergence; alone, 35 g/ha; read-out: % visual injury, Ob
Method: as §1, §2, §3, §4, §5

spring wheat (TRZAS) = assay: Postemergence greenhouse trial, % visual injury on spring wheat; format: in vivo, Triticum aestivum; settings: alone, 35 g/ha
Method: as §1, §2, §3, §4, §5

corn/maize (ZEAMX) = assay: Postemergence greenhouse trial, % visual injury on corn/maize; format: in vivo, Zea mays; settings: for % visual injury, observed (Ob): ZEAMX
Method: as §1, §2, §3
as §4, with “evaluated. […]” for “evaluated.”

velvetleaf (ABUTH) = assay: Postemergence greenhouse trial, % visual injury on velvetleaf; format: in vivo, Abutilon theophrasti; settings: alone, 35 g/ha
Method: as §1, §2, §3, §4, §5

poinsettia (EPHHL) = assay: Postemergence greenhouse trial, % visual injury on poinsettia; format: in vivo, Euphorbia heterophylla; settings: alone, 35 g/ha
Method: as §1
Weighed amounts of technical material were dissolved in a volume of 97:3 volume per volume (v/v) acetone/dimethyl sulfoxide (DMSO) to stock solutions. […] The concentrated stock solutions were diluted with an aqueous mixture of 1.5% v/v of Agri-dex crop oil concentrate to provide the appropriate application rates. Compound requirements are based upon a 12 milliliter (mL) application volume at a rate of 187 liters per hectare (L/ha). Stocks solutions of the safeners were prepared following the same procedure. […]
as §3, with “Colby's equation was used to determine the herbicidal effects expected from the mixtures.” left out
as §4, with “evaluated. […]” for “evaluated.”

winter rape (BRSNW) = assay: Postemergence greenhouse trial, % visual injury on winter rape; format: in vivo, Brassica napus; settings: Brassica napus, post-emergence; alone, 35 g/ha; read-out: % visual injury, Ob
Method: as §1, §2, §3
as §4, with “evaluated. […]” for “evaluated.”

nutsedge (CYPES) = assay: Postemergence greenhouse trial, % visual injury on nutsedge; format: in vivo, Cyperus esculentus; settings: for % visual injury, observed (Ob): CYPES
Method: as §1, §2, §3
as §4, with “evaluated. […]” for “evaluated.”
(§6) The safener cloquintocet-acid and a number of agriculturally acceptable esters and salts (-mexyl, -dimethylammonium salt and -triethylammonium salt) were combined in varying ratios with compound 1 and applied to spring wheat (TRZAS), winter wheat (TRZAW), and spring barley (HORVS), and the phytotoxicity of the herbicidal compositions was measured. […]

thistle (CIRAR) = assay: Postemergence greenhouse trial, % visual injury on thistle; format: in vivo, Cirsium arvense; settings: Cirsium arvense, post-emergence; alone, 35 g/ha; read-out: % visual injury, Ob
Method: as §1, §2, §3
as §4, with “evaluated. […]” for “evaluated.”

pigweed (AMARE) = assay: Postemergence greenhouse trial, % visual injury on pigweed; format: in vivo, Amaranthus retroflexus; settings: for % visual injury, observed (Ob): AMARE
Method: as §1, §2, §3
as §4, with “evaluated. […]” for “evaluated.”
as §6

common sunflower (HELAN) = assay: Postemergence greenhouse trial, % visual injury on common sunflower; format: in vivo, Helianthus annuus
Method: as §1, §2, §3
(§7) The safener cloquintocet-acid and a number of agriculturally acceptable esters and salts (-mexyl, -dimethylammonium salt and -triethylammonium salt) were combined in varying ratios with compound 1 and applied to spring wheat (TRZAS), winter wheat (TRZAW), and spring barley (HORVS), and the phytotoxicity of the herbicidal compositions was measured. In addition, the efficacy of the herbicidal composition on pigweed (AMARE, Amaranthus retroflexus), nutsedge (CYPES, Cyperus esculentus), common sunflower (HELAN, Helianthus annuus), and common sorghum (SORVU, Sorghum vulgare).

winter wheat (TRZAW) = assay: Postemergence greenhouse trial, % visual injury on winter wheat; format: in vivo, Triticum aestivum; settings: TRZAW
Method: as §1, §2, §3, §5

common sorghum (SORVU) = assay: Postemergence greenhouse trial, % visual injury on common sorghum; format: in vivo, Sorghum vulgare; settings: SORVU
Method: as §1, §2
as §3, with “mixtures. […]” for “mixtures.”
as §7

Structure (SMILES)	% visual injury, observed (Ob) (common sunflower (HELAN); safener alone 2.5 g/ha)	% visual injury, observed (Ob) (common sunflower (HELAN); safener alone 5 g/ha)	% visual injury, observed (Ob) (common sunflower (HELAN); safener alone 10 g/ha)	% visual injury, observed (Ob) (common sunflower (HELAN); safener alone 20 g/ha)	% visual injury, observed (Ob) (corn/maize (ZEAMX); safener alone 2.5 g/ha)	% visual injury, observed (Ob) (corn/maize (ZEAMX); safener alone 5 g/ha)	% visual injury, observed (Ob) (corn/maize (ZEAMX); safener alone 10 g/ha)	% visual injury, observed (Ob) (corn/maize (ZEAMX); safener alone 20 g/ha)	% visual injury, observed (Ob) (winter wheat (TRZAW); safener alone 2.5 g/ha)	% visual injury, observed (Ob) (winter wheat (TRZAW); safener alone 5 g/ha)	% visual injury, observed (Ob) (winter wheat (TRZAW); safener alone 10 g/ha)	% visual injury, observed (Ob) (winter wheat (TRZAW); safener alone 20 g/ha)	% visual injury, observed (Ob) (nutsedge (CYPES); safener alone 2.5 g/ha)	% visual injury, observed (Ob) (nutsedge (CYPES); safener alone 5 g/ha)	% visual injury, observed (Ob) (nutsedge (CYPES); safener alone 10 g/ha)	% visual injury, observed (Ob) (nutsedge (CYPES); safener alone 20 g/ha)	% visual injury, observed (Ob) (pigweed (AMARE); safener alone 2.5 g/ha)	% visual injury, observed (Ob) (pigweed (AMARE); safener alone 5 g/ha)	% visual injury, observed (Ob) (pigweed (AMARE); safener alone 10 g/ha)	% visual injury, observed (Ob) (pigweed (AMARE); safener alone 20 g/ha)	other results
COCC(=O)n1ccc2ccc(-c3nc(C(=O)OC)c(Cl)c(N)c3F)c(F)c21 [compound 6]	–	–	–	–	–	–	–	–	–	–	–	–	–	–	–	–	–	–	–	–	% visual injury, Ob (wild buckwheat (POLCO)): 97%; pest or weed control at 35 g/ha (lambsquarters (CHEAL)): 100%; % visual injury, Ob (spring wheat (TRZAS)): 35%; % visual injury, Ob (corn/maize (ZEAMX); alone, 35 g/ha): 25%; % visual injury, Ob (velvetleaf (ABUTH)): 80%; % visual injury, Ob (poinsettia (EPHHL)): 100%; plant injury at 35 g/ha (winter rape (BRSNW)): 75%; % visual injury, Ob (nutsedge (CYPES); alone, 35 g/ha): 0%; pest or weed control at 35 g/ha (thistle (CIRAR)): 75%; pest or weed control at 35 g/ha (pigweed (AMARE); Amaranthus retroflexus, post-emergence, alone, 35 g/ha, read-out: % visual injury, Ob): 100%
O=C(O)COc1ccc(Cl)c2cccnc12 [CQC-acid]	0%	0%	0%	0%	0%	0%	0%	0%	0%	0%	0%	0%	0%	0%	0%	0%	0%	0%	0%	0%	% visual injury, observed (Ob) (common sorghum (SORVU); safener alone 2.5 g/ha): 0%; % visual injury, observed (Ob) (common sorghum (SORVU); safener alone 5 g/ha): 0%; % visual injury, observed (Ob) (common sorghum (SORVU); safener alone 10 g/ha): 0%; % visual injury, observed (Ob) (common sorghum (SORVU); safener alone 20 g/ha): 0%
CNC.O=C(O)COc1ccc(Cl)c2cccnc12 [CQC-DMA]	0%	0%	0%	0%	0%	0%	0%	0%	0%	0%	0%	0%	0%	0%	0%	0%	0%	0%	0%	0%	% visual injury, observed (Ob) (common sorghum (SORVU); safener alone 2.5 g/ha): 0%; % visual injury, observed (Ob) (common sorghum (SORVU); safener alone 5 g/ha): 0%; % visual injury, observed (Ob) (common sorghum (SORVU); safener alone 10 g/ha): 0%; % visual injury, observed (Ob) (common sorghum (SORVU); safener alone 20 g/ha): 0%
